Reference: patent US11617762B2, “Compositions comprising sulfated polysaccharides” (SEANERGY DERMATOLOGY LTD., priority 2016, dated 2023)

Assays:
[1] = tested on: TNFα secretion in RAW 264.7 cells; experiment: LPS-induced TNFα secretion by RAW 264.7 macrophage cells (ELISA); type: cell-based; settings: LPS 1 μg/ml, 24 hr
Experimental: The potential for synergistic interaction was tested by assaying inflammatory mediator secretion by a macrophage cell line (RAW 264.7), following stimulation with lipopolysaccharide (LPS). […] RAW 264.7 monocyte macrophage cells (approximately 4×10^5/ml) were seeded in 24 well plates containing 800 microliters/well of complete growth medium (DMEM containing 2 mM glutamine, 100 U/ml penicillin and 100 μg/ml streptomycin and 10% fetal bovine serum). The cells were then incubated at 37 degrees Celsius with 5% carbon dioxide for 24 h. At the end of this period, growth medium supplemented with 1 μg/ml lipopolysaccharide (LPS) was added to the cells, together with the test substances (SPS, anti-inflammatory drugs and their combinations) and various controls), and the cells were then incubated for a further 24 hr. period under the same conditions as before. Following this incubation period, the conditioned medium was aspirated from the various test and control wells and centrifuged at 14,000 g for 5 minutes to remove particulate matter. The clear supernatants were then stored at −70 degrees Celsius prior to assaying the inflammatory mediatory content therein. The cytokine/mediator content in the thawed supernatants was assayed using standard ELISA kits for TNFα, IL-6 and PGE2 (BioLegend Inc., San Diego, Calif., USA). Method: Raw 264.7 macrophage cells were incubated (as described above) in the absence or presence of LPS and treated without or with the SPS (Porphyridium C. SPS), Dexamethasone or a combination thereof for 24 hr. Then, TNFα levels in the spent medium were quantified by ELISA, as explained above. DMSO were used as vehicle. Methods: Hydrocortisone, Mometasone furoate and Porphyridium SPS were tested alone and in combination, according to the methods described hereinabove, in order to assess the effect of these various treatments on TNFα secretion in RAW 264.7 cells. Methods: Dexamethasone alone, SPS obtained from brown algae and green algae alone, and combinations of dexamethasone with the SPS, were tested, as described hereinabove, in order to assess the effect of these various treatments on TNFα secretion in RAW 264.7 cells.

[2] = tested on: PGE2 secretion in RAW 264.7 cells; experiment: LPS-induced prostaglandin E2 secretion by RAW 264.7 macrophage cells (ELISA); type: cell-based
Experimental: The potential for synergistic interaction was tested by assaying inflammatory mediator secretion by a macrophage cell line (RAW 264.7), following stimulation with lipopolysaccharide (LPS). The inflammatory mediators assayed were: tumor necrosis factor—alpha (TNF-alpha), interleukin 6 (IL-6) and prostaglandin E2 (PGE2). RAW 264.7 monocyte macrophage cells (approximately 4×10^5/ml) were seeded in 24 well plates containing 800 microliters/well of complete growth medium (DMEM containing 2 mM glutamine, 100 U/ml penicillin and 100 μg/ml streptomycin and 10% fetal bovine serum). The cells were then incubated at 37 degrees Celsius with 5% carbon dioxide for 24 h. At the end of this period, growth medium supplemented with 1 μg/ml lipopolysaccharide (LPS) was added to the cells, together with the test substances (SPS, anti-inflammatory drugs and their combinations) and various controls), and the cells were then incubated for a further 24 hr. period under the same conditions as before. Following this incubation period, the conditioned medium was aspirated from the various test and control wells and centrifuged at 14,000 g for 5 minutes to remove particulate matter. The clear supernatants were then stored at −70 degrees Celsius prior to assaying the inflammatory mediatory content therein. The cytokine/mediator content in the thawed supernatants was assayed using standard ELISA kits for TNFα, IL-6 and PGE2 (BioLegend Inc., San Diego, Calif., USA). […] SPS was also investigated on Prostaglandin E2 (PGE2) secretion, as an independent inflammation marker derived from arachidonic acid metabolism. Raw 264.7 macrophage cells were incubated (as described above) in the absence or presence of LPS and treated without or with the SPS (Porphyridium C. SPS), Indomethacin or a combination thereof for 24 hr. Then, PGE2 levels in the supernatant medium were quantified by ELISA, as explained above. DMSO were used as vehicle. […]

C[C@@H]1C[C@H]2[C@@H]3CCC4=CC(=O)C=C[C@]4(C)[C@@]3(F)[C@@H](O)C[C@]2(C)[C@@]1(O)C(=O)CO [Dexamethasone]
inhibition at 1 µM ([1]; Mus musculus, RAW264.7, Table 2, TNFα, 1.0 μM alone): 34%
TNFα concentration (ng/ml) ([1]; Table 2, 1.0 μM alone): 7,400 ng/ml

C[C@@H]1C[C@H]2[C@@H]3CCC4=CC(=O)C=C[C@]4(C)[C@@]3(Cl)[C@@H](O)C[C@]2(C)[C@@]1(OC(=O)c1ccco1)C(=O)CCl [Mometasone furoate]
inhibition at 0.5 µM ([1]; Mus musculus, RAW264.7, Table 1, TNFα, 0.5 μM alone, read-out: % inhibition (mean; n = 3)): 32%
TNFα concentration (ng/ml) ([1]; Table 1, 0.5 μM alone): 7,600 ng/ml

COc1ccc2c(c1)c(CC(=O)O)c(C)n2C(=O)c1ccc(Cl)cc1 [indomethacin, Indomethacin]
effect on LPS-stimulated Prostaglandin E2 secretion (in words) ([2]; Example 3, FIG. 3, used alone): inhibited LPS-stimulated Prostaglandin E2 secretion to a certain degree, although this effect was not statistically significant

C[C@]12CCC(=O)C=C1CC[C@@H]1[C@@H]2[C@@H](O)C[C@@]2(C)[C@H]1CC[C@]2(O)C(=O)CO [Hydrocortisone]
inhibition at 5 µM ([1]; Mus musculus, RAW264.7, Table 1, TNFα, 5.0 μM alone, read-out: % inhibition (mean; n = 3)): 27%
TNFα concentration (ng/ml) ([1]; Table 1, 5.0 μM alone): 8,200 ng/ml

O=C(O)Cc1ccccc1Nc1c(Cl)cccc1Cl [Diclofenac]
inhibition at 0.1 µM ([2]; Mus musculus, RAW264.7, Table 3, PGE2, 0.1 μM alone, LPS 1 μg/ml, 24 hr): 7.5%
PGE2 ([2]; Table 3, 0.1 μM alone, LPS 1 μg/ml, 24 hr): 3,700
